From patent US9320773B2, “Compounds and therapeutic applications related to inhibition of dendritic cell immunoreceptor (DCIR) activity and signaling events” (priority 2010, dated 2016) come the findings set out here.

Data set [1] deals with HIV-1 NL4-3 in Raji-CD4-DCIR cells. In words: HIV-1 binding/entry assay in Raji-CD4-DCIR cells (cell-associated p24 ELISA). As to conditions: cells pretreated with inhibitor 10 min, pulsed with NL4-3 60 min; result in words. The class given is cell-based. Here is the method:
FIG. 2A: Raji-CD4 and Raji-CD4-DCIR cells were either left untreated or treated with SSG (100 μg/ml) for 10 min at 37° C. Thereafter, cells were pulsed with NL4-3 for 60 min. After three washes with PBS to remove non-adsorbed virus, cell-associated virus was quantified by measuring the p24 content. Data shown correspond to the means±SD of triplicate samples from three combined independent experiments. The asterisk denotes statistically significant data (*, P<0.05; **, P<0.01). FIG. 2B: Cells were either left untransfected or transfected with a sense or antisense oligonucleotide specific for the signalling protein of interest. Next, cells were pulsed with NL4-3 for 60 min. After three washes with PBS to eliminate unbound virus, cell-associated virus was quantified by measuring the p24 content. Data shown correspond to the means±SD of triplicate samples from three combined independent experiments. The asterisk denotes statistically significant data (*, P<0.05; **, P<0.01). After gene silencing, the diminution of the targeted protein was verified by western blots, provided as an insert for each graph.
Where indicated, parental Raji-CD4 cells (DCIR-negative) or Raji-CD4-DCIR transfectants (1×10^6) were pretreated with the indicated amount of a pharmacological inhibitor for 10 min or transfected with sense or antisense oligonucleotides as described below. Cells were then pulsed with NL4-3 (100 ng of p24) for 60 min at 37° C. Next the virus-cell mixture was washed 3 times with PBS to remove unbound virus and resuspended in PBS containing 1% BSA. To assess binding/entry, the p24 content was determined by our in-house ELISA assay^33.
Raji-CD4 and Raji-CD4-DCIR cells (1×10^6 cells) were washed with OptiMEM (Invitrogen Life Technologies) without serum and antibiotics. The phosphorothioate oligodeoxynucleotides (Listed in Table 1) (Invitrogen Life Technologies) were transfected at a final concentration of 10 μM/well^35 using Oligofectamine according to the manufacturer's instructions (Invitrogen Life Technologies). Silencing efficiency was monitored by western blot analysis.

Data set [2] concerns DCIR expression in CD4+ T cells. In words: HIV-1-mediated induction of DCIR expression in CD4+ T cells (flow cytometry). The class given is cell-based, human. As to conditions: for HIV-1-mediated DCIR expression: cells pre-treated before virus infection, 3 days, result in words. As to the method: Mitogen-activated CD4^+ T cells (1×10^6) were first either left untreated or treated for 1 h with the caspase inhibitor Z-VAD-FMK (50 nM), after which HIV-1 was added (100 ng of p24), where indicated. DCIR expression was monitored 3 days later by flow cytometry. Data shown represent the means±SD of triplicate samples from three independent experiments.
Cells (1×10^6) were first either left untreated or treated for 1 h with NAC, after which HIV-1 (100 ng of p24) was added. DCIR expression was monitored 3 days later by flow cytometry. Expression of DCIR is shown as a dotted line, whereas the continuous line represents staining obtained with an isotype-matched irrelevant control Ab. Data shown correspond to a single experiment representative of 3 independent experiments.
Cell surface expression of DCIR was monitored by flow cytometric analysis (Epics ELITE ESP, Coulter Electronics, Burlington, Canada). Cells (1×10^6 cells) were incubated for 30 min with a pool of human serum to block the unspecific binding. After washing, the cells were incubated with PE-labeled anti-DCIR (0.25 μg) for 45 min at 4° C. and then washed twice with PBS and 0.5% BSA. Non-specific staining was determined by using an isotype-matched irrelevant control antibody. After two final washes with PBS, cells were fixed in 2% paraformaldehyde for 30 min and analyzed.
In general terms: In flow cytometry, cells or beads pass a laser one at a time.

Another data set has as its system CD4+ T cells. The data set can be described thus: Cell toxicity / viability of CD4+ T cells. In kind it is cell-based, human. As to conditions: HIV-1-infected CD4+ T cells; data not shown.
Data set [3] relates to DCIR expression in CD4+ T cells. The data set can be described thus: DCIR expression in CD4+ T cells after H2O2 or other apoptosis inducers (flow cytometry). In kind it is cell-based, human. Here is the method: Next, DCIR expression was assessed by flow cytometry. Data shown represent the ratio of DCIR expression over basal expression. The ratio is calculated from the means±SD of triplicate samples from three independent experiments. […] FIG. 16A: […] Expression of DCIR is shown as a dotted line, whereas the continuous line represents staining obtained with an isotype-matched irrelevant control Ab. Data shown correspond to a single experiment representative of 3 independent experiments. FIG. 16B: […] Thereafter, DCIR surface expression and caspase activation were monitored by flow cytometric analysis using a double-staining method consisting of FITC-VAD-FMK followed by the R-PE-conjugated anti-DCIR. Data shown correspond to a single experiment representative of 4 independent experiments. Cell surface expression of DCIR was monitored by flow cytometric analysis (Epics ELITE ESP, Coulter Electronics, Burlington, Canada). […] After washing, the cells were incubated with PE-labeled anti-DCIR (0.25 μg) for 45 min at 4° C. and then washed twice with PBS and 0.5% BSA. Non-specific staining was determined by using an isotype-matched irrelevant control antibody. After two final washes with PBS, cells were fixed in 2% paraformaldehyde for 30 min and analyzed.

Data set [4] has as its system HIV-1 NL4-3balenv in IM-MDDCs. The data set can be described thus: HIV-1 binding/entry in IM-MDDCs transfected with ITIM peptides (p24). The class given is cell-based. As to conditions: peptides inserted with Pro-Ject, NL4-3balenv 60 min; result in words. Here is the method:
(§1) FIG. 7A: Raji-CD4 cells were transduced with a retroviral vector expressing either a wild-type form of DCIR, a T6F mutant of DCIR, or a Y7F mutant of DCIR. Surface expression level of DCIR was assessed by flow cytometry using a combination of PE-labelled anti-DCIR antibody (dotted lines) and a control isotype-matched antibody (continuous lines). […] FIG. 7B: For the virus binding/entry assay shown in the left panel, the indicated cell lines were exposed to NL4-3. For the infection assay shown in the right panel, the same cells were exposed to NL4-3 for 2 hours at 37° C., and then maintained in culture for 9 days. FIG. 7C: IM-MDDCs were treated with Pro-Ject only, with a control peptide or an ITIM peptide, either not phosphorylated or phosphorylated on the tyrosine or threonine residue, during 5 min at 37° C. Next, cells were pulsed with NL4-3balenv for 60 min at 37° C. and washed extensively before measuring the p24 content (left panel). […] Cell-free culture supernatants were quantified by measuring the p24 content. […]
(§2) For assessing binding/entry, IM-MDDCs (3×10^5 cells in a final volume of 300 μl) transfected with one of the ITIM peptides were exposed to NL4-3balenv (30 ng of p24) for 60 min at 37° C. […] The p24 content was determined by ELISA. As for susceptibility of IM-MDDCs to HIV-1 infection, it was assessed by initially exposing 3×10^5 cells to NL4-3balenv (30 ng) for 2 hours at 37° C. […]

Data set [5] relates to HIV-1 NL4-3balenv in IM-MDDCs. The data set can be described thus: HIV-1 infection of IM-MDDCs transfected with ITIM peptides (p24 in supernatants). In kind it is cell-based. As to conditions: peptides inserted with Pro-Ject, NL4-3balenv 2 hours, culture up to 9 days; result in words. As to the method: as §1, §2

Non-standard residues stand in square brackets, D forms with d. Residues, ends and D or L forms follow the SMILES beside them. *: point of attachment. pY = N[C@@H](Cc1ccc(OP(=O)(O)O)cc1)C(=O)O; pT = C[C@@H](OP(=O)(O)O)[C@H](N)C(=O)O; Cbz = O=C(OCc1ccccc1)*; CH2F = FC*

Turning to `Cn1c2ccccc2c2c3c(c4c5ccccc5n(CCC#N)c4c21)CNC3=O` [Go6976], the HIV-1 binding/entry result in data set [1] is reported as “play a role”.

For `CC(=O)N[C@@H](CS)C(=O)O` [NAC, N-acetyl-L-cystein], the “HIV-1-mediated DCIR expression” value in data set [2] was “inhibited but not completely”. For the same compound, in data set [2] (virus-infected cells also treated with NAC, n=3, 16.2±3.4% in HIV-1-infected cells without NAC), the “HIV-1-induced expression of DCIR on the surface of CD4+ T cells” value amounted to 6.7±1.7%. In addition, in the data set on CD4+ T cells, the cell toxicity entry is “no toxicity”. As to `COc1cccc(-c2cc(=O)c3ccccc3o2)c1N` [PD98059], the HIV-1 binding/entry result in data set [1] is listed as “significant decrease”. On the same count and under the same terms, to `CC(C)(C)n1nc(-c2ccc(Cl)cc2)c2c(N)ncnc21` [PP2] belongs “decreased”. Consider `Oc1cc(O)cc(/C=C/c2ccc(O)c(O)c2)c1` [Pic, piceatannol], for which the HIV-1 binding/entry result in data set [1] is “significantly decreases”. Take `C[S+]([O-])c1ccc(-c2nc(-c3ccncc3)c(-c3ccc(F)cc3)[nH]2)cc1` (stereo not drawn) [SB203580]: the HIV-1 binding/entry result in data set [1] is on record as “significant decrease”. On to `COC(=O)CC(NC(=O)C(C)NC(=O)C(NC(=O)OCc1ccccc1)C(C)C)C(=O)CF` (stereo not drawn) [Z-VAD-FMK, Benzyloxycarbonyl-Val-Ala-Asp (OMe) fluoromethylketone] (Cbz-Val-Ala-Asp(OMe)-CH2F; configuration not given here), for which the “HIV-1-mediated DCIR expression” value in data set [2] is given as “partially reduced”. Besides, in data set [3] (cells treated with both H2O2 (30 μM) and Z-VAD-FMK (50 nM, 1 h pretreatment), n=3), the “DCIR expression in activated CD4+ T cells” value was 1.0±0.2%. The “DCIR expression after H2O2 stimulation” value in data set [3] (pretreatment with Z-VAD-FMK, result in words) is reported as “prevented”. The cell toxicity result with CD4+ T cells was “no toxicity”. For `CN[C@@H]1C[C@H]2O[C@@](C)([C@@H]1OC)n1c3ccccc3c3c4c(c5c6ccccc6n2c5c31)C(=O)NC4` [staurosporine], the DCIR expression result in data set [3] (CD4+ T cells treated with inducer, H2O2 20 to 60 μM, result in words) is given as “promoted”. For `C(=C\c1ccccc1)/c1ccccc1` [trans-stilbene], the HIV-1 binding/entry result in data set [1] is “inability of the inactive analog trans-stilbene to induce a comparable decrease”. For the compound “TAMRA-EIT(PO3H2)YAEVRFKNEFKS-OH ({TAMRA}-EI[pT]YAEVRFKNEFKS-OH) [ITIM peptide phosphorylated on threonine]”, the virus binding/entry result in data set [4] is given as “decrease”. In addition, the “virus replication / infection” value in data set [5] is on record as “decrease”. As to “TAMRA-EITY(PO3H2)AEVRFKNES-OH ({TAMRA}-EIT[pY]AEVRFKNES-OH) [ITIM peptide phosphorylated on tyrosine]”, in data set [4], the virus binding/entry entry was “decrease”. Also, the “virus replication / infection” value in data set [5] is “decrease”.
